Assay in all cases: DTP human tumour cell line panel, 48 h
Assay [1] deals with NCI-H522 lung.
In assay [2] the test system is HL-60(TB) leukemia.
Assay [3] concerns M14 melanoma.
The test system of assay [4] is 786-0 renal.
Assay [5] has as its system ACHN renal.
Assay [6] deals with OVCAR-5 ovarian.
The test system of assay [7] is OVCAR-3 ovarian.
Assay [8] concerns U251 CNS.
Assay [9] concerns SF-539 CNS.

Structures are written as SMILES. Several values for one entry are separate records, joined by “and”; a condition that tells them apart may be missing. Equal values may be shown once.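 Values below derive from 48-hour exposures of cells grown in 96-well plates, with endpoints linearly interpolated between the two concentrations bracketing the appropriate inhibition level. Here, GI50 denotes the concentration required for 50% inhibition of growth. Definition used: TGI = concentration required for complete inhibition of growth.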

By TGI is commonly meant the concentration giving total growth inhibition. `Cc1cccc2c1C(=O)OC2(c1cccc2ccccc12)c1cccc2ccccc12`: the TGI in assay [1], in [2], in assay [3], in assay [4], in [5] and in assay [6] was more than 100 µM in each case. Moreover, the TGI in assay [7] and in assay [8] was more than 100 µM each time.

For the molecule `Nc1ccc(C(=O)N/C(=C\c2ccc3c(c2)OCO3)c2nc3ccc4c(c3[nH]2)C(=O)c2ccccc2C4=O)cc1`, the TGI in assay [1] is 71.9 µM; in [3] it was more than 100 µM; in [4] it was 72.2 µM; in assay [5], 64.9 µM; in assay [9], more than 100 µM; in assay [6], more than 100 µM. Besides, the TGI in [7] and in assay [8] was more than 100 µM throughout.

The term GI50 denotes the concentration that inhibits growth by half. On to `Cc1ccc(/C=C2\CN(C(=O)CCN3CCC(=NO)CC3)C/C(=C\c3ccc(C)cc3)C2=O)cc1`, for which the GI50 in assay [2] was 1.69 µM; in [4], 1.68 µM; in assay [5], 1.4 µM; in assay [9], 1.77 µM; in assay [6] it was 1.79 µM. In addition, the TGI in [2] turned out to be 4.6 µM; in assay [4], 3.42 µM; in assay [5], 2.83 µM; in assay [9], 3.27 µM; in assay [6], 3.47 µM.

As to `Cc1ccc(S(=O)(=O)N/N=C/CN2C(=O)c3ccccc3C2=O)cc1`, the concentration for total growth inhibition (TGI) in [1], in [2], in [3], in assay [4], in assay [5] and in assay [9] was more than 100 µM each time. The molecule also showed a TGI in assay [8] of more than 100 µM.

`CCc1cc2c(c3[nH]ccc13)[C@@H](C)C[C@H]2C`: the TGI in assay [1] was found to be 31.9 µM; in [2], 48.8 µM; in [3] it was 34.4 µM; in assay [4], 28.2 µM; in assay [5], 30.9 µM; in [7], 37.1 µM. The TGI in assay [8] turned out to be 31.6 µM.

On to `CCOc1c(Cc2ccccc2)c(=O)n2c3ccccc3n3c(=O)n(C)c(=O)c1c23`, for which the TGI in assay [3], in assay [4], in [5], in assay [9], in [6] and in [7] was more than 100 µM each time. For the same molecule, the TGI in [8] is more than 100 µM.

As for `CCCN(CCC)c1c([N+](=O)[O-])cc(C(N)=O)cc1[N+](=O)[O-]`, the TGI in [1] was 67.3 µM; in assay [2], 87.4 µM; in [3] it was more than 100 µM; in assay [4], more than 100 µM; in [5], more than 100 µM; in assay [9], more than 100 µM. In addition, the TGI in assay [6], in [7] and in [8] was more than 100 µM in each case.

Regarding `O=C1NC(=Nc2ccccc2Cl)SC1C(=O)Nc1ccc([N+](=O)[O-])cc1[N+](=O)[O-]` (stereo not given), the TGI in assay [1], in assay [2], in assay [3], in [4], in [5] and in assay [9] was more than 100 µM in each case. Further, the TGI in assay [6], in assay [7] and in assay [8] was more than 100 µM throughout.

For `COc1cccc(C2N3CCCCC3[C@@H]3c4[nH]c5ccccc5c4CCN23)c1OC` (stereo not given in full), the TGI in assay [2] was determined as 31.7 µM; in [3], 29.6 µM; in [4], 32.4 µM; in assay [5], 28.6 µM; in assay [9] it was 28.5 µM; in assay [6] it was 29.4 µM. Moreover, the TGI in [7] stood at 25.9 µM; in assay [8] it was 30.9 µM.

For the molecule `O=[P+](O)c1cc2c3ccccc3ccc2c2ccccc12`, the TGI in [1], in [2], in assay [3], in assay [4], in assay [9] and in assay [7] was more than 100 µM throughout. Further, in assay [8], the TGI was more than 100 µM.

Turning to `O=C1/C(=C/c2ccccc2)CN(C(=O)Oc2ccccc2)C/C1=C\c1ccccc1`, the TGI is more than 100 µM in assay [1]; 5.78 µM in [2]; more than 100 µM in assay [3]; 49.1 µM in assay [4]; more than 100 µM in [5]; 22.3 µM in assay [9]. The TGI in assay [6], in assay [7] and in assay [8] was more than 100 µM in each case.

On to `COc1ccc(CN[C@H]2CCc3cc(OC)c(OC)c(OC)c3-c3ccc(SC)c(=O)cc32)c(OC)c1OC`, for which the TGI in assay [1] was 0.0495 µM; in [4], more than 100 µM; in [5] it was more than 100 µM; in [9], 0.0478 µM and 0.0387 µM; in assay [6] it was more than 100 µM; in assay [7], 0.0618 µM and 0.028 µM. For the same molecule, in assay [8], the TGI was 0.0444 µM and 0.103 µM. Further, the GI50 in assay [2] is less than 0.01 µM; in [3] it was 0.0102 µM; in [4], 0.0285 µM; in assay [5], 0.0428 µM; in assay [9], 0.01 µM; in [6], more than 100 µM. The GI50 in [7] is less than 0.01 µM; in assay [8], 0.0299 µM.

Regarding `CC(C)C(NCc1c2ccccc2nc2ccccc12)C(=O)O` (stereo not given), the TGI in assay [1] was 91.2 µM; in assay [2], 73.8 µM; in assay [3], more than 100 µM; in [4], more than 100 µM; in assay [5], more than 100 µM; in assay [9] it was more than 100 µM. The TGI in assay [6], in assay [7] and in assay [8] was more than 100 µM in each case.

Consider `Clc1cc(-c2csc(Cl)c2)cs1`, for which the TGI in [1], in assay [2], in assay [3], in assay [4], in assay [5] and in assay [9] was more than 100 µM each time. Moreover, the TGI in [6], in [7] and in [8] was more than 100 µM each time.

For `COC(=O)C([O][Ge]([CH3])([CH3])[CH3])c1ccccc1` (stereo not given), the GI50 is more than 100 µM in assay [1]; 90.8 µM in assay [2]; more than 100 µM in [3]; more than 100 µM in assay [4]; more than 100 µM in [5]; more than 100 µM in assay [9]. Besides, the GI50 in assay [6], in [7] and in assay [8] was more than 100 µM throughout. Moreover, the TGI in [1], in assay [2], in assay [3], in assay [4], in assay [5] and in assay [9] was more than 100 µM throughout. The TGI in assay [6], in [7] and in assay [8] was more than 100 µM throughout.

Turning to `O=C1/C(=C/c2ccc(Cl)cc2)COc2ccc(Br)cc21`, the TGI in assay [1], in [2], in assay [4], in assay [5], in assay [9] and in assay [6] was more than 100 µM in each case. Besides, the TGI in assay [7] and in [8] was more than 100 µM in each case.

Consider `CC(C(=O)C(C)O[Si](c1ccccc1)(c1ccccc1)C(C)(C)C)=P(c1ccccc1)(c1ccccc1)c1ccccc1` (stereo not given), for which the TGI in assay [2] is 4.24 µM; in assay [3], 14.7 µM; in assay [4] it was 15.4 µM; in [5], 14.6 µM; in assay [9], 13.4 µM; in [6], 24.9 µM. For the same molecule, the TGI is 9.38 µM in [7] and 14.1 µM in assay [8].

For `CC(C)S(=O)(=O)ON1C(=O)c2ccc([N+](=O)[O-])cc2C1=O`, the TGI in assay [1], in [2], in assay [3], in [4], in assay [5] and in assay [9] was more than 100 µM in each case. The TGI in [6], in assay [7] and in [8] was more than 100 µM throughout.

Regarding `COc1ccccc1NC(=O)NS(=O)(=O)c1ccccc1`, the TGI in assay [1], in assay [2], in assay [3], in assay [4], in assay [5] and in [9] was more than 100 µM each time. Besides, the TGI in assay [6] and in assay [8] was more than 100 µM each time.

For the molecule `Cc1nc(=O)n2c(c1C(=O)Nc1ccc(Cl)cc1)NCCC2`, the TGI in assay [1], in [2], in assay [3], in assay [4], in assay [5] and in assay [9] was more than 100 µM throughout. Besides, the TGI in assay [6], in assay [7] and in assay [8] was more than 100 µM throughout.

`CC(C)N(C(=O)C12C3C4C5C3C1(C(=O)N(C(C)C)C(C)C)C5C42)C(C)C` (stereo not given): the TGI in [1] was more than 100 µM; in assay [2], more than 55.6 µM; in assay [3], more than 100 µM; in assay [4] it was more than 100 µM; in assay [5], more than 100 µM; in assay [9] it was more than 100 µM. Also, the TGI in [6], in assay [7] and in assay [8] was more than 100 µM throughout.

On to `CCC[CH2][Sn]1([CH2]CCC)[O]N=Cc2ccccc2[O]1`, for which the GI50 was 0.102 µM in [1]; 0.183 µM in assay [2]; 0.78 µM in assay [3]; 0.608 µM in [4]; 1.18 µM in assay [5]; 1.17 µM in assay [9]. In addition, the GI50 in assay [6] is 1.69 µM; in assay [7], 0.402 µM; in assay [8], 0.387 µM. Moreover, the TGI in [1] was found to be 0.229 µM; in assay [2], 0.726 µM; in assay [3], 2.09 µM; in assay [4], 1.89 µM; in assay [5] it was 2.43 µM; in assay [9], 2.43 µM. The TGI in assay [6] turned out to be 3.08 µM; in assay [7], 1.57 µM; in assay [8], 1.41 µM.

`Cn1cc(C2=C(c3cn(C)c4cc(Cl)ccc34)C(=O)NC2=O)c2ccccc21`: the GI50 is 0.0723 µM in assay [1]; 0.0814 µM in assay [2]; 0.0879 µM in assay [3]; 0.203 µM in assay [4]; 0.181 µM in assay [5]; 0.0556 µM in [9]. In addition, the GI50 in [6] was 0.157 µM; in assay [7] it was 0.0653 µM; in [8] it was 0.0988 µM. For the same molecule, the TGI in assay [1] was 0.345 µM; in [2], 0.241 µM; in [3] it was more than 25 µM; in assay [4], more than 20.8 µM; in assay [5], more than 25 µM; in assay [9] it was 0.141 µM. In addition, the TGI in [6] was more than 25 µM; in assay [7] it was 0.154 µM; in assay [8], more than 25 µM.

Consider `CC(=O)OC1CC2C(C)(C)C(=O)C=C[C@]2(C)C2CCC3(C)C(=CCC3[C@H](CO)C[C@H](O)C(=O)C(C)(C)O)[C@]12C` (stereo not given in full), for which the TGI was found to be 52.3 µM in assay [1]; 43.8 µM in assay [2]; 45.6 µM in assay [3]; 34.1 µM in assay [4]; 50 µM in assay [5]; 35.1 µM in [9]. For the same molecule, the TGI in [6] is 83.3 µM; in assay [7], 35.4 µM; in [8] it was 31.5 µM.

On to `CC1(C)CC(=O)C=C(NC(=O)c2ccccc2)C1`, for which the TGI in [1], in [2], in assay [3], in assay [4], in assay [9] and in [7] was more than 100 µM throughout. This molecule also registered a TGI in assay [8] of more than 100 µM.

As for `CCC1C(=O)OCc2c1cc1n(c2=O)Cc2ccccc2-1` (stereo not given), the TGI in assay [2], in assay [3], in assay [4], in assay [5], in assay [9] and in assay [6] was more than 100 µM throughout. Besides, in [7], the TGI was more than 100 µM.

With `c1cc[c]([Sn]([O]c2cccc3cccnc23)([c]2ccccc2)[c]2ccccc2)cc1`, the GI50 was less than 0.01 µM in assay [1]; 0.0166 µM in assay [3]; 0.015 µM in assay [4]; 0.0168 µM in assay [5]; 0.0195 µM in assay [9]; 0.0119 µM in assay [6]. The GI50 in assay [7] was 0.0171 µM; in assay [8] it was 0.0184 µM. Also, the TGI in [3] was 0.0319 µM; in [4] it was 0.029 µM; in assay [5], 0.0332 µM; in assay [9], 0.0387 µM; in [6], 0.0424 µM; in assay [7], 0.0337 µM. In [8], this molecule returned a TGI of 0.0374 µM.

The values are drawn from PubChem BioAssay (NCI).
